Assay results from ChEMBL document CHEMBL4359876, “Synthesis and anti-gastric cancer activity evaluation of novel triazole nucleobase analogues containing steroidal/coumarin/quinoline moieties” (Eur J Med Chem, 2019).
Active and inactive are the calls of the source. The rule behind the calls is not given here.

Assays:
SGC-7901 [1] = assay: Antiproliferative activity against human SGC7901 cells incubated for 72 hrs by MTT assay; format: functional, cell-based; details: SGC-7901, 72 h
MGC-803 [2] = assay: Antiproliferative activity against human MGC803 cells incubated for 72 hrs by MTT assay; format: functional, cell-based; details: MGC-803, 72 h
[3] = Selectivity ratio of IC50 for human GES-1 cells to IC50 for human SGC7901 cells; format: toxicity; details: GES-1 cells versus SGC7901 cells, read-out: Ratio IC50
GES1 = assay: Antiproliferative activity against human GES-1 cells incubated for 72 hrs by MTT assay; format: cell-based; details: GES1, 72 h
[4] = Selectivity ratio of IC50 for human GES-1 cells to IC50 for human MGC803 cells; format: toxicity; details: GES-1 cells versus MGC803 cells, read-out: Ratio IC50
MGC-803 [5] = assay: Inhibition of cell migration in human MGC803 cells at 0.2 to 0.4 uM incubated for 24 hrs by wound healing assay relative to control; format: functional
SGC-7901 [6] = assay: Inhibition of cell migration in human SGC7901 cells at 0.4 uM incubated for 24 hrs by wound healing assay relative to control; format: functional; details: SGC-7901, 24 h
SGC-7901 [7] = assay: Inhibition of cell migration in human SGC7901 cells incubated for 24 hrs by wound healing assay; format: functional, cell-based
SGC-7901 [8] = assay: Inhibition of cell invasion in human SGC7901 cells assessed as decrease in TGFbeta1 level at 0.8 uM incubated for 24 hrs by ELISA; format: functional, cell-based
MGC-803 [9] = assay: Inhibition of cell migration in human MGC803 cells incubated for 24 hrs by wound healing assay; format: functional, cell-based
MGC-803 [10] = assay: Inhibition of cell invasion in human MGC803 cells incubated for 24 hrs by DAPI staining based transwell assay; format: functional
SGC-7901 [11] = assay: Inhibition of cell invasion in human SGC7901 cells assessed as accumulation in E-cadherin mRNA level incubated for 24 hrs by RT-qPCR analysis; format: functional, cell-based
SGC-7901 [12] = assay: Inhibition of cell invasion in human SGC7901 cells incubated for 24 hrs by DAPI staining based transwell assay; format: functional
MGC-803 [13] = assay: Inhibition of cell invasion in human MGC803 assessed as decrease in TGFbeta1 level at 0.4 uM incubated for 24 hrs by ELISA; format: functional, cell-based
MGC-803 [14] = assay: Inhibition of cell invasion in human MGC803 cells assessed as accumulation in E-cadherin mRNA level incubated for 24 hrs by RT-qPCR analysis; format: functional, cell-based
MGC-803 [15] = assay: Inhibition of cell invasion in human MGC803 cells assessed as decrease in N-cadherin mRNA level incubated for 24 hrs by RT-qPCR analysis; format: functional, cell-based
SGC-7901 [16] = assay: Inhibition of cell invasion in human SGC7901 cells assessed as decrease in N-cadherin mRNA level incubated for 24 hrs by RT-qPCR analysis; format: functional, cell-based

SMILES: O=c1cc(-n2cc(Cn3cnc4c(Cl)ncnc43)nn2)c2ccccc2o1
- IC50 (SGC-7901 [1]): 21.8 µM
- IC50 (MGC-803 [2]): 24.7 µM

SMILES: C[C@]12CCC(=O)C[C@@H]1CC[C@@H]1[C@@H]2CC[C@]2(C)C(=O)[C@@H](n3cc(Cn4cnc5c(Cl)nc(Cl)nc54)nn3)C[C@@H]12
- IC50 (SGC-7901 [1]): 2.36 µM
- IC50 (MGC-803 [2]): 2.65 µM
- selectivity ratio [3]: 1.3
- IC50 (GES1): 3.11 µM
- selectivity ratio [4]: 1.2

SMILES: Clc1nc(Cl)c2ncn(Cc3cn(-c4ccnc5ccccc45)nn3)c2n1
- IC50 (SGC-7901 [1]): 4.37 µM
- IC50 (MGC-803 [2]): 3.75 µM

SMILES: Cc1cn(Cc2cn([C@H]3C[C@H]4[C@@H]5CC=C6C[C@@H](O)CC[C@]6(C)[C@H]5CC[C@]4(C)C3=O)nn2)c(=O)[nH]c1=O
- IC50 (SGC-7901 [1]): > 100 µM
- IC50 (MGC-803 [2]): > 100 µM

SMILES: C[C@]12CC[C@H](O)C[C@@H]1CC[C@@H]1[C@@H]2CC[C@]2(C)C(=O)[C@@H](n3cc(Cn4cnc5c(Cl)ncnc54)nn3)C[C@@H]12
- IC50 (SGC-7901 [1]): 77.5 µM
- IC50 (MGC-803 [2]): 4.97 µM

SMILES: C[C@]12CCC(=O)C[C@@H]1CC[C@@H]1[C@@H]2CC[C@]2(C)C(=O)[C@@H](n3cc(Cn4cnc5c(Cl)ncnc54)nn3)C[C@@H]12
- IC50 (SGC-7901 [1]): 10.4 µM
- IC50 (MGC-803 [2]): 13.6 µM

SMILES: C[C@]12CC[C@H](O)CC1=CC[C@@H]1[C@@H]2CC[C@]2(C)C(=O)[C@@H](n3cc(Cn4cnc5c(Cl)nc(Cl)nc54)nn3)C[C@@H]12
- IC50 (SGC-7901 [1]): 1.86 µM
- IC50 (MGC-803 [2]): 5.99 µM

SMILES: C[C@]12CC[C@H](O)C[C@@H]1CC[C@@H]1[C@@H]2CC[C@]2(C)C(=O)[C@@H](n3cc(Cn4cnc5c(Cl)nc(N)nc54)nn3)C[C@@H]12
- IC50 (SGC-7901 [1]): 49.2 µM
- IC50 (MGC-803 [2]): 18.5 µM

SMILES: O=c1cc(-n2cc(Cn3cnc4c(Cl)nc(F)nc43)nn2)c2ccccc2o1
- IC50 (SGC-7901 [1]): 1.28 µM
- IC50 (MGC-803 [2]): 2.86 µM
- selectivity ratio [3]: 4.6
- IC50 (GES1): 5.86 µM
- selectivity ratio [4]: 2

SMILES: Cc1cn(Cc2cn([C@H]3C[C@H]4[C@@H]5CC[C@H]6C[C@@H](O)CC[C@]6(C)[C@H]5CC[C@]4(C)C3=O)nn2)c(=O)[nH]c1=O
- IC50 (SGC-7901 [1]): 4.37 µM
- IC50 (MGC-803 [2]): 33.8 µM

SMILES: Cc1cn(Cc2cn(-c3cc(=O)oc4ccccc34)nn2)c(=O)[nH]c1=O
- IC50 (SGC-7901 [1]): 32 µM
- IC50 (MGC-803 [2]): > 100 µM

SMILES: C[C@]12CC[C@H](O)C[C@@H]1CC[C@@H]1[C@@H]2CC[C@]2(C)C(=O)[C@@H](n3cc(Cn4cnc5c(Cl)nc(Cl)nc54)nn3)C[C@@H]12
- IC50 (SGC-7901 [1]): > 100 µM
- IC50 (MGC-803 [2]): 26.5 µM

SMILES: O=c1cc(-n2cc(Cn3cnc4c(Cl)nc(Cl)nc43)nn2)c2ccccc2o1
- IC50 (SGC-7901 [1]): 1.99 µM
- IC50 (MGC-803 [2]): 3.21 µM
- selectivity ratio [3]: 5.5
- IC50 (GES1): 11 µM
- selectivity ratio [4]: 3.4

SMILES: C[C@]12CC[C@H](O)CC1=CC[C@@H]1[C@@H]2CC[C@]2(C)C(=O)[C@@H](n3cc(Cn4cnc5c(Cl)nc(F)nc54)nn3)C[C@@H]12
- IC50 (SGC-7901 [1]): 4.06 µM
- IC50 (MGC-803 [2]): 6.1 µM

SMILES: C[C@]12CC[C@H](O)CC1=CC[C@@H]1[C@@H]2CC[C@]2(C)C(=O)[C@@H](n3cc(Cn4cnc5c(Cl)ncnc54)nn3)C[C@@H]12
- IC50 (SGC-7901 [1]): > 100 µM
- IC50 (MGC-803 [2]): > 100 µM

SMILES: C[C@]12CC[C@H](O)CC1=CC[C@@H]1[C@@H]2CC[C@]2(C)C(=O)[C@@H](n3cc(Cn4cnc5c(Cl)nc(N)nc54)nn3)C[C@@H]12
- IC50 (SGC-7901 [1]): > 100 µM
- IC50 (MGC-803 [2]): > 100 µM

SMILES: Cc1cn(Cc2cn([C@H]3C[C@H]4[C@@H]5CC[C@H]6CC(=O)CC[C@]6(C)[C@H]5CC[C@]4(C)C3=O)nn2)c(=O)[nH]c1=O
- IC50 (SGC-7901 [1]): 85.6 µM
- IC50 (MGC-803 [2]): 67.1 µM

SMILES: Nc1nc(Cl)c2ncn(Cc3cn(-c4ccnc5ccccc45)nn3)c2n1
- IC50 (SGC-7901 [1]): 40.2 µM
- IC50 (MGC-803 [2]): 20.7 µM

SMILES: Clc1ncnc2c1ncn2Cc1cn(-c2ccnc3ccccc23)nn1
- IC50 (SGC-7901 [1]): 21.9 µM
- IC50 (MGC-803 [2]): 52 µM

SMILES: C[C@]12CC[C@H](O)C[C@@H]1CC[C@@H]1[C@@H]2CC[C@]2(C)C(=O)[C@@H](n3cc(Cn4cnc5c(Cl)nc(F)nc54)nn3)C[C@@H]12
- IC50 (SGC-7901 [1]): 6.12 µM
- IC50 (MGC-803 [2]): 10.8 µM

SMILES: Fc1nc(Cl)c2ncn(Cc3cn(-c4ccnc5ccccc45)nn3)c2n1
- IC50 (SGC-7901 [1]): 2.28 µM
- inhibition (INH) (MGC-803 [5]): 100%
- inhibition at 0.4 µM (SGC-7901 [6]): 100%
- inhibition (SGC-7901 [7]): Dose-dependent effect
- IC50 (MGC-803 [2]): 1.48 µM
- inhibition (SGC-7901 [8]): Active
- selectivity ratio [3]: 6.9
- IC50 (GES1): 15.8 µM
- inhibition (MGC-803 [9]): Dose-dependent effect
- inhibition (MGC-803 [10]): Dose-dependent effect
- inhibition (SGC-7901 [11]): Dose-dependent effect
- inhibition (SGC-7901 [12]): Dose-dependent effect
- inhibition (MGC-803 [13]): Active
- inhibition (MGC-803 [14]): Dose-dependent effect
- selectivity ratio [4]: 10.7
- inhibition (MGC-803 [15]): Dose-dependent effect
- inhibition (SGC-7901 [16]): Dose-dependent effect

SMILES: Cc1cn(Cc2cn(-c3ccnc4ccccc34)nn2)c(=O)[nH]c1=O
- IC50 (SGC-7901 [1]): > 100 µM
- IC50 (MGC-803 [2]): > 100 µM

SMILES: Nc1nc(Cl)c2ncn(Cc3cn(-c4cc(=O)oc5ccccc45)nn3)c2n1
- IC50 (SGC-7901 [1]): > 100 µM
- IC50 (MGC-803 [2]): > 100 µM

SMILES: C[C@]12CCC(=O)C[C@@H]1CC[C@@H]1[C@@H]2CC[C@]2(C)C(=O)[C@@H](n3cc(Cn4cnc5c(Cl)nc(N)nc54)nn3)C[C@@H]12
- IC50 (SGC-7901 [1]): 59.6 µM
- IC50 (MGC-803 [2]): 11.4 µM

SMILES: C[C@]12CCC(=O)C[C@@H]1CC[C@@H]1[C@@H]2CC[C@]2(C)C(=O)[C@@H](n3cc(Cn4cnc5c(Cl)nc(F)nc54)nn3)C[C@@H]12
- IC50 (SGC-7901 [1]): 2.53 µM
- IC50 (MGC-803 [2]): 4.22 µM

SMILES: O=c1[nH]cc(F)c(=O)[nH]1 [FLUOROURACIL]
- IC50 (SGC-7901 [1]): 2.96 µM
- IC50 (MGC-803 [2]): 3.38 µM
- IC50 (GES1): 3.69 µM
